# From the supplement of paper PMC11616607
# How the values were obtained:
# Test in all cases: drug sensitivity score (DSS) from 5-point dose-response viability curve (DSS (area-under-curve based score)); higher = more sensitive (stronger growth inhibition or killing); extreme values may be limits of the assay
# Settings in all cases: exposure time: 72 h; concentration range: 5 concentrations over 10,000-fold range
# [1] = test system: HOSE2C
# In short: (§1)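 Ovarian cancer and normal ovarian cell lines were tested in 384-well plates, with drugs dispensed acoustically (Echo 550) in DMSO or water at five concentrations covering a 10,000-fold range. After 1,500 cells per well were added, plates were incubated for 3 days at 37°C and 5% CO2, and viability was read by CellTiter-Glo luminescence on a PHERAstar FS. Breeze software gave a drug sensitivity score for each cell line and drug, where a higher score means greater sensitivity. A value of zero means no response.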
# [2] = test system: Ovsaho
# In short: as §1
# [3] = test system: JHOS2
# In short: as §1
# [4] = test system: OVCAR4
# In short: as §1
# [5] = test system: OV90
# In short: as §1
# [6] = test system: HOSE1C
# In short: as §1
# [7] = test system: OVCAR5
# In short: as §1
# [8] = test system: COV318
# In short: as §1
# [9] = test system: Kuramochi
# In short: as §1
# [10] = test system: OVCAR8
# In short: as §1
# [11] = test system: CAOV3
# In short: as §1
# [12] = test system: COV362
# In short: as §1
Structure (SMILES),drug sensitivity score [1],drug sensitivity score [2],drug sensitivity score [3],drug sensitivity score [4],drug sensitivity score [5],drug sensitivity score [6],drug sensitivity score [7],drug sensitivity score [8],drug sensitivity score [9],drug sensitivity score [10],drug sensitivity score [11],drug sensitivity score [12]
COc1cc2c(Nc3ccc(Cl)c(Cl)c3F)ncnc2cc1OC[C@@H]1C[C@@H]2CN(C)C[C@@H]2C1 [Tesevatinib],0,2.2,0.1,1.6,0,1.6,5,0,1.2,1.3,8.4,0.9
O=C1CCC(N2C(=O)c3ccccc3C2=O)C(=O)N1 (configuration not stated) [Thalidomide],0,0,0,0,0,0,0,0,0,0,0,0
Nc1nc2[nH]cnc2c(=S)[nH]1 [Thioguanine],2.4,8,2.3,9.9,6.3,3.4,13.4,0.7,7.2,12.7,11.9,9.4
O=c1sn(-c2cccc3ccccc23)c(=O)n1Cc1ccccc1 [Tideglusib],0,0.1,0,0,0,0,0,0,0,0,0,0
Cn1cncc1[C@@](N)(c1ccc(Cl)cc1)c1ccc2c(c1)c(-c1cccc(Cl)c1)cc(=O)n2C [Tipifarnib],3,7.5,3.1,4.7,4.7,9.2,4.3,5.2,6.8,4.2,3.1,1.7
CC#CC(=O)N1CC[C@@H](n2c(=O)n(-c3ccc(Oc4ccccc4)cc3)c3c(N)ncnc32)C1 [Tirabrutinib],0,0.3,0,0,0,0,0.8,0,1.3,0,1.6,0
O=C1NC(=O)[C@@H](c2cn3c4c(cccc24)CCC3)[C@@H]1c1c[nH]c2ccccc12 [Tivantinib],4.7,4.2,3,1.6,2.8,5.2,4,1.9,2.9,4.1,3.7,1.6
COc1cc2nccc(Oc3ccc(NC(=O)Nc4cc(C)on4)c(Cl)c3)c2cc1OC [Tivozanib],6.8,0.1,0.2,2.3,5.6,2.4,4,0.6,1.7,2.6,1.8,0
C[C@@H]1CCN(C(=O)CC#N)C[C@@H]1N(C)c1ncnc2[nH]ccc12 [Tofacitinib],0.2,0,0,0,0.3,2.8,0.2,0,0,0,0,0
CC[C@@]1(O)C(=O)OCc2c1cc1n(c2=O)Cc2cc3c(CN(C)C)c(O)ccc3nc2-1 [Topotecan],24.8,8.5,11,7.2,15.4,26.6,10.1,6.3,5.4,13.5,18.2,5.7
CN(C)CCOc1ccc(/C(=C(/CCCl)c2ccccc2)c2ccccc2)cc1 [Toremifene],1.6,3.5,2,2,5.3,3.5,4.9,2.3,3.5,2.9,1.8,0.6
CC(C)C[C@@H](C(=O)N[C@H](C(=O)OC1CCCC1)c1ccccc1)[C@H](O)C(=O)NO [Tosedostat],2.1,5.1,15.7,7.4,12.3,0,8.3,0.4,0.6,6.9,7.4,0
Cc1cc(Nc2cc(N3CCN(C)CC3)nc(Sc3ccc(NC(=O)C4CC4)cc3)n2)n[nH]1 [Tozasertib],6.8,2.3,2.1,5.8,6.4,5.2,6.1,1.3,3.6,6.5,25.2,1.6
CC(=O)Nc1cccc(-n2c(=O)n(C3CC3)c(=O)c3c(Nc4ccc(I)cc4F)n(C)c(=O)c(C)c32)c1 [Trametinib],0,12.4,6.7,1.9,25,0,12.9,0,7.1,3.4,11.8,4.9
CC1=C(/C=C/C(C)=C/C=C/C(C)=C/C(=O)O)C(C)(C)CCC1 [Tretinoin],5.7,0,0.5,0,0,0,0,0,0,0,0,0
NC(=S)N/N=C/c1ncccc1N [Triapine],7.7,2.4,3.1,0,1.1,9.7,2.6,0.6,0.5,4.9,4.1,0.5

Structure (SMILES),drug sensitivity score [1],drug sensitivity score [2],drug sensitivity score [3],drug sensitivity score [4],drug sensitivity score [5],drug sensitivity score [6],drug sensitivity score [7],drug sensitivity score [8],drug sensitivity score [9],drug sensitivity score [10],drug sensitivity score [11],drug sensitivity score [12]
O=c1[nH]c(=O)n([C@H]2C[C@H](O)[C@@H](CO)O2)cc1C(F)(F)F [Trifluridine],0,2,0.6,1.1,2.1,0,2.9,0,0,2.7,3.3,0
O=C(CCCCCCC(=O)Nc1ccc([C@H]2O[C@@H](CSc3nc(-c4ccccc4)c(-c4ccccc4)o3)C[C@@H](c3ccc(CO)cc3)O2)cc1)NO [Tubacin],2.6,2.3,1.7,2.7,2.4,2.5,2.4,2,2.6,5.6,1.8,0.7
CN1CCc2c(c3ccccc3n2Cc2ccc(C(=O)NO)cc2)C1 [Tubastatin A],2.7,1,1.8,1.7,3.4,4.2,5.2,0.9,1.5,4.6,0.7,1.7
Cc1cc(Nc2ncnc3ccc(NC4=NC(C)(C)CO4)cc23)ccc1Oc1ccn2ncnc2c1 [Tucatinib],0,0,0,0,0,0,0,0,0,0,0,0
Nc1cc(F)ccc1NC(=O)c1ccc(CNC(=O)/C=C/c2cccnc2)cc1 [Tucidinostat],10.8,3,3.5,1.7,7.2,14.7,7,3.9,2.1,8,4.3,0
CN[C@@H]1C[C@H]2O[C@@](C)([C@@H]1OC)n1c3ccccc3c3c4c(c5c6ccccc6n2c5c31)C(=O)N[C@H]4O [UCN-01],29.7,23.8,15.3,13.8,22.8,27.8,18.1,18.7,14.6,18.8,19.3,17.8
COC(=O)c1ccc2c(c1)[nH]c1ncnc(NCCCN3CCCCC3)c12 [UM729],0,0.1,0,0,0,0.2,1,0,0,1.6,0,0
COc1cc2c(NC3CCN(C(C)C)CC3)nc(C3CCCCC3)nc2cc1OCCCN1CCCC1 [UNC0638],0,0.3,0,0.9,5.4,0,3.4,0.6,0.8,3.6,0.1,4.1
COc1cc2c(NC3CCN(C(C)C)CC3)nc(N3CCC(F)(F)CC3)nc2cc1OCCCN1CCCC1 [UNC0642],0,0,0,0,4.4,0,1,0,0,0.7,0.2,0.9
O=C(c1ccc(C(=O)N2CCC(N3CCCC3)CC2)c(Nc2ccccc2)c1)N1CCC(N2CCCC2)CC1 [UNC1215],0,0,0,0,0,0,0,0,0,0,0,0
CCCCNc1ncc(C(=O)NCc2ccc(-n3ccnc3)cc2)c(NC2CCC(O)CC2)n1 (configuration not stated) [UNC2881],0.5,0.8,0,0.1,1.2,0,0.6,0,0,0,0.2,0
NC(=O)c1cccc(-c2cccc(OC(=O)NC3CCCCC3)c2)c1 [URB597],0,0,0,0,0,0,0,0,0,0,0,0
CC(C)Nc1cc(-c2c[nH]c(C(=O)N[C@H](CO)c3cccc(Cl)c3)c2)c(Cl)cn1 [Ulixertinib],2.2,11.5,3.8,1.1,14,0,7.8,0.9,7.7,3.6,8,1.9
CC[C@@H]1CN(C(=O)NCC(F)(F)F)C[C@@H]1c1cnc2cnc3[nH]ccc3n12 [Upadacitinib],0,0,0,0,1.3,0,0,2.1,0.8,0,0,0.2
Cn1ncc(Cl)c1-c1cc(C(=O)N[C@H](CN)Cc2ccc(F)c(F)c2)oc1Cl [Uprosertib],2.1,0.6,0,0,0.7,3.2,0.9,0.4,1,0,0.9,0
